In series [1] the test system is peritoneal murine macrophages. The arrangement: method as in Meinel et al. ([2020]). To be noted: murine macrophage cells; ref Meinel et al. ([2020]); cited from earlier work.
Series [2] has as its system L. amazonensis intracellular amastigotes. Kind of series: Activity against intracellular amastigote forms of L. amazonensis in peritoneal macrophages (Giemsa counting). In kind it is cell-based, Leishmania amazonensis. As to conditions: for IC50: Leishmania amazonensis, Peritoneal macrophage, intracellular amastigotes in murine peritoneal macrophages, 72 h; for SI (Selectivity Index): CC50 of peritoneal murine macrophages/IC50 L. amazonensis amastigotes. The procedure:
Peritoneal macrophages were obtained from BALB/c mice previously inoculated with 3% thioglycollate medium (da Trindade Granato et al. [2018]). The macrophages (2 × 10^6 cells/mL) were then allowed to adhere in 24‐well culture plates for 16 h at 37°C in a 5% CO2 atmosphere. After rinsing with phosphate‐buffered saline (PBS), the adhered macrophages were infected with stationary‐phase promastigotes of L. amazonensis at a 10:1 parasite‐to‐macrophage ratio for 4 h at 33°C. After several washes to remove non‐adherent promastigotes, the cells were either left untreated (negative control) or treated with the compounds (3.125–100.000 μM). Following a 72 h treatment period, the infected macrophages were fixed in ethanol, stained with Giemsa, and 200 macrophages were counted to determine the number of intracellular amastigotes. The GraFit software was used to determine the IC50, which was the outcome of three separate trials conducted in duplicate.

Series [3] is described as follows: Cytotoxicity against mammalian cells (MTT). In kind it is cell-based, BALB/c mice. To be noted: BALB/c, mouse; peritoneal murine macrophages, 72 h, MTT. The procedure: After being prepared as previously mentioned, murine peritoneal macrophages obtained from BALB/c mice were either left untreated (negative control) or treated with the compounds (3.125–100.000 μM). Using a spectrophotometer (Multiskan EX, Thermo Electron Corporation, Vantaa, Finland) set to 570 nm, cell viability was assessed after 72 h of treatment using the MTT method (Mosmann [1983]). A cytotoxic concentration for 50% of the cell population (CC50) was used to express the results. The reference medication was miltefosine (Cayman Chemical Company, Ann Arbor, MI, USA). The assays were performed in three independent experiments in duplicate. The selectivity index was calculated by […].

A short description of series [4]: Cytotoxicity in human red blood cells (hemolytic assay). In kind it is cell-based. To be noted: human erythrocytes (1% suspension), 200.00 μM (maximum concentration tested). On the procedure:
Blood cells were centrifuged at 1500 rpm, the plasma and leukocytes were discarded, and the erythrocytes were washed in PBS. Then, the cells were diluted to a concentration of 1%, plated in 96‐well plates, and untreated or treated with the compound 7 at different concentrations (0.09–200.00 μM). The plate was incubated for 24 h at 37°C, and then centrifuged at 2000 rpm for 1 min. The supernatant was collected, and the absorbance (Abs) was determined in a spectrophotometer (Multiskan EX, Thermo Electron Corporation, Vantaa, Finland) at 540 nm. Untreated cells were considered the negative control. For the positive control, 0.2% saponin in deionized water was used.

The subject of series [5] is L. amazonensis promastigotes. Kind of series: Activity against promastigotes of L. amazonensis (MTT). In kind it is cell-based. As to conditions: Leishmania amazonensis, 72 h, read-out: Promastigote IC50. The procedure:
Promastigotes of L. amazonensis (IFLA/BR/67/PH8) were cultivated in brain heart infusion ([…] José dos […], Brazil) supplemented with bovine hemin (Sigma-Aldrich, St. Louis, MO, USA), folic acid (Sigma-Aldrich, St. Louis, MO, USA), inactivated fetal bovine serum (Cultilab, São Paulo, Brazil), and penicillin/streptomycin solution (Sigma-Aldrich, St. Louis, MO, USA). The cells were kept at 25°C in a BOD incubator. […] Louis, MO, USA; Mosmann [1983]). The viability of parasites was measured using a spectrophotometer (Multiskan EX-Thermo Electron Corporation, Vantaa, Finland) at 570 nm. The values were expressed as an inhibitory concentration capable of inhibiting 50% (IC50) of cell growth by using GraFit 5 software (Erithacus Software Ltda). […] Paulo, SP, Brazil) were used as reference drugs. All assays were run in triplicate across three separate trials.

The structures appear in SMILES notation. A value given as a limit tells only on which side of the number the result lay.

On to `CCCCCCCCCCn1cc(COCC2CO2)[n+](C)n1.[I-]` (stereo not drawn) [1‐decyl‐3‐methyl‐4‐((oxiran‐2‐ylmethoxy)methyl)‐1H‐1,2,3‐triazol‐3‐ium iodide], for which the “fold lower cytotoxicity compared to its 4-hydroxy-substituted precursor” value in series [1] was “approximately 2.5 fold”.

Turning to `C[C@@H]1[C@H](O)[C@@H](C)/C=C/C=C/C=C/C=C/C=C/C=C/C=C/[C@H](O[C@@H]2O[C@H](C)[C@@H](O)[C@H](N)[C@@H]2O)C[C@@H]2O[C@](O)(C[C@@H](O)C[C@@H](O)[C@H](O)CC[C@@H](O)C[C@@H](O)CC(=O)O[C@H]1C)C[C@H](O)[C@H]2C(=O)O` [Am B, amphotericin B, reference compound], the concentration for half-maximal inhibition (IC50) (usually the concentration needed to halve the response being measured) in series [2] is 85.8 ± 30.4 µM. Besides, the CC50 (commonly the concentration that lowers cell viability or growth by half) at 72 h in series [3] came to 0.71 ± 0.22 µM. The molecule also showed a hemolysis at 24 h, 200 µM in series [4] of 95.9%.

Turning to `CCCCCCCCn1cc(COC(=O)c2ccccc2O)nn1` [Compound 2, (1‐Octyl‐1H‐1,2,3‐Triazol‐4‐Yl)methyl 2‐Hydroxybenzoate], the IC50 in series [5] and in series [2] was > 100 µM each time. In addition, the CC50 at 72 h in series [3] is > 150 µM.

Take `CCCCCCCCCCn1cc(COC(=O)c2ccccc2O)nn1` [Compound 3, (1‐Decyl‐1H‐1,2,3‐Triazol‐4‐Yl)methyl 2‐Hydroxybenzoate]: the half-inhibitory concentration (IC50) in series [5] and in series [2] was > 100 µM in each case. In series [3], this molecule showed a CC50 at 72 h of 70.2 ± 14.2 µM.

For the molecule `CCCCCCCCCCCCn1cc(COC(=O)c2ccccc2O)nn1` [Compound 4, (1‐Dodecyl‐1H‐1,2,3‐Triazol‐4‐Yl)methyl 2‐Hydroxybenzoate], the IC50 in series [5] and in series [2] was > 100 µM in each case. In addition, the CC50 at 72 h in series [3] is > 150 µM.

With `CCCCCCCCCCCCCCn1cc(COC(=O)c2ccccc2O)nn1` [Compound 5, (1‐Tetradecyl‐1H‐1,2,3‐Triazol‐4‐Yl)methyl 2‐Hydroxybenzoate], the IC50 in series [5] and in series [2] was > 100 µM each time. In addition, the CC50 at 72 h in series [3] was > 150 µM.

As to `CCCCCCCCCCCCCCCCn1cc(COC(=O)c2ccccc2O)nn1` [Compound 6, (1‐Hexadecyl‐1H‐1,2,3‐Triazol‐4‐Yl)methyl 2‐Hydroxybenzoate], the concentration for half-maximal inhibition (IC50) in series [5] and in series [2] was > 100 µM throughout. Moreover, the CC50 at 72 h in series [3] is > 150 µM.

For `CCCCCCCCCCn1cc(COC(=O)c2ccccc2O)[n+](C)n1.[I-]` [Compound 8, 1‐Decyl‐4‐(((2‐Hydroxybenzoyl)oxy)methyl)‐3‐Methyl‐1H‐1,2,3‐Triazol‐3‐Ium Iodide], the IC50 in series [5] was 1.08 ± 0.18 µM. Also, in series [2], the “SI (Selectivity Index)” value is 0.12 and the IC50 is 2.49 ± 0.5 µM. The same molecule showed a CC50 at 72 h in series [3] of 0.31 ± 0.22 µM.

On to `CCCCCCCCCCCCn1cc(COC(=O)c2ccccc2O)[n+](C)n1` [Compound 9, 1‐Dodedecyl‐4‐(((2‐Hydroxybenzoyl)oxy)methyl)‐3‐Methyl‐1H‐1,2,3‐Triazol‐3‐Ium Iodide], for which the IC50 in series [5] was 1.58 ± 0.12 µM. Further, in series [2], the “SI (Selectivity Index)” value stood at 0.21 and half-maximal inhibition (IC50) was put at 6.31 ± 1.86 µM. Moreover, in series [3], the midpoint of cytotoxicity, the CC50 at 72 h, lay at 1.34 ± 0.32 µM.

In the case of `CCCCCCCCCCCCCCn1cc(COC(=O)c2ccccc2O)[n+](C)n1.[I-]` [Compound 10, 1‐Tetradecyl‐4‐(((2‐Hydroxybenzoyl)oxy)methyl)‐3‐Methyl‐1H‐1,2,3‐Triazol‐3‐Ium Iodide], the IC50 is 1.55 ± 0.34 µM in series [5] and 5.92 ± 2.24 µM in series [2]. Besides, in series [2], the “SI (Selectivity Index)” value was 0.40. In series [3], this molecule returned a CC50 at 72 h of 2.37 ± 0.82 µM.

On to `CCCCCCCCCCCCCCCCn1cc(COC(=O)c2ccccc2O)[n+](C)n1.[I-]` [Compound 11, 1‐Hexadecyl‐4‐(((2‐Hydroxybenzoyl)oxy)methyl)‐3‐Methyl‐1H‐1,2,3‐Triazol‐3‐Ium Iodide], for which, in series [5], the 50% inhibitory concentration (IC50) came to 1.72 ± 0.02 µM. Further, in series [2], the “SI (Selectivity Index)” value is 0.32 and the IC50 was 12.4 ± 1.86 µM. Also, the midpoint of cytotoxicity in series [3], the CC50 at 72 h, lay at 4.01 ± 1.12 µM.

For the molecule `CCCCCCCCCCCCCCCCOP(=O)([O-])OCC[N+](C)(C)C` [Miltefosine, reference compound], the IC50 in series [5] turned out to be 15.1 ± 2.08 µM; in series [2], 11.5 ± 1.79 µM. In series [3], this molecule registered a CC50 at 72 h of 151.81 ± 0.03 µM. The molecule further yielded a hemolysis at 24 h, 200 µM in series [4] of 95.9%.
